From the NIST ThermoML archive (doi:10.1021/acs.jced.8b00011)
Values joined by “and” are separate entries in the source; they are usually repeats but may differ in a detail not shown here. Equal values may be shown once.

Settings: Liquid; for mass density: Vibrating tube method; for electrical conductivity: electrochemical impedance spectroscopy

CCCCC[P+](CC)(CC)CC.O=S(=O)([N-]S(=O)(=O)C(F)(F)F)C(F)(F)F
Settings	electrical conductivity	mass density
323.15 K, 5000 kPa	–	1286.05 kg/m3
323.15 K, 10000 kPa	–	1289.93 kg/m3
323.15 K, 15000 kPa	–	1293.65 kg/m3
323.15 K, 20000 kPa	–	1297.31 kg/m3
323.15 K, 25000 kPa	–	1300.84 kg/m3
323.15 K, 30000 kPa	–	1304.31 kg/m3
323.15 K, 35000 kPa	–	1307.72 kg/m3
323.15 K, 40000 kPa	–	1311.03 kg/m3
323.15 K, 45000 kPa	–	1314.23 kg/m3
323.15 K, 50000 kPa	–	1317.43 kg/m3
328.15 K, 101.33 kPa	0.515 S/m and 0.516 S/m	–
333.15 K, 100 kPa	–	1273.44 kg/m3 [middle of 6 runs]
333.15 K, 101.33 kPa	0.598 S/m and 0.6 S/m	–
333.15 K, 1000 kPa	–	1274.41 kg/m3
333.15 K, 5000 kPa	–	1277.68 kg/m3
333.15 K, 10000 kPa	–	1281.66 kg/m3
333.15 K, 15000 kPa	–	1285.53 kg/m3
333.15 K, 20000 kPa	–	1289.3 kg/m3
333.15 K, 25000 kPa	–	1292.91 kg/m3
333.15 K, 30000 kPa	–	1296.47 kg/m3
333.15 K, 35000 kPa	–	1299.98 kg/m3
333.15 K, 40000 kPa	–	1303.38 kg/m3
333.15 K, 45000 kPa	–	1306.68 kg/m3
333.15 K, 50000 kPa	–	1309.96 kg/m3
338.15 K, 101.33 kPa	0.687 S/m and 0.689 S/m	–
343.15 K, 100 kPa	–	1264.95 kg/m3 [middle of 6 runs]
343.15 K, 101.33 kPa	0.784 S/m and 0.786 S/m	–
343.15 K, 1000 kPa	–	1265.61 kg/m3
343.15 K, 5000 kPa	–	1269.03 kg/m3
343.15 K, 10000 kPa	–	1273.12 kg/m3
343.15 K, 15000 kPa	–	1277.12 kg/m3
343.15 K, 20000 kPa	–	1280.98 kg/m3
343.15 K, 25000 kPa	–	1284.76 kg/m3
343.15 K, 30000 kPa	–	1288.39 kg/m3
343.15 K, 35000 kPa	–	1291.99 kg/m3
343.15 K, 40000 kPa	–	1295.5 kg/m3
343.15 K, 45000 kPa	–	1298.89 kg/m3
343.15 K, 50000 kPa	–	1302.23 kg/m3
348.15 K, 101.33 kPa	0.885 S/m and 0.887 S/m	–
348.16 K, 101.33 kPa	0.877 S/m	–
353.15 K, 100 kPa	–	1256.32 kg/m3 [middle of 5 runs]
353.15 K, 101.33 kPa	0.999 S/m and 1 S/m	–
353.15 K, 1000 kPa	–	1256.5 kg/m3
353.15 K, 5000 kPa	–	1260.01 kg/m3
353.15 K, 10000 kPa	–	1264.27 kg/m3
353.15 K, 15000 kPa	–	1268.38 kg/m3
353.15 K, 20000 kPa	–	1272.39 kg/m3
353.15 K, 25000 kPa	–	1276.24 kg/m3
353.15 K, 30000 kPa	–	1280.04 kg/m3
353.15 K, 35000 kPa	–	1283.68 kg/m3
353.15 K, 40000 kPa	–	1287.28 kg/m3
353.15 K, 45000 kPa	–	1290.77 kg/m3
353.15 K, 50000 kPa	–	1294.22 kg/m3
363.15 K, 100 kPa	–	1248.72 kg/m3 [middle of 4 runs]

Settings	electrical conductivity [S/m]	viscosity
323.15 K, 5900 kPa, Frequency=0 MHz	0.411	–
323.15 K, 10600 kPa, Falling or rolling sphere viscometry	–	33.85 mPa·s
323.15 K, 10600 kPa, Frequency=0 MHz	0.393	–
323.15 K, 20500 kPa, Falling or rolling sphere viscometry	–	37.97 mPa·s
323.15 K, 30600 kPa, Falling or rolling sphere viscometry	–	42.53 mPa·s
323.15 K, 40300 kPa, Falling or rolling sphere viscometry	–	47.23 mPa·s
323.15 K, 50500 kPa, Falling or rolling sphere viscometry	–	52.72 mPa·s
323.15 K, 60300 kPa, Falling or rolling sphere viscometry	–	58.3 mPa·s
323.15 K, 77000 kPa, Frequency=0 MHz	0.211	–
323.15 K, 80500 kPa, Falling or rolling sphere viscometry	–	71.43 mPa·s
323.15 K, 100200 kPa, Falling or rolling sphere viscometry	–	86.46 mPa·s
323.15 K, 120600 kPa, Falling or rolling sphere viscometry	–	104.7 mPa·s
323.15 K, 126900 kPa, Frequency=0 MHz	0.138	–
323.15 K, 140600 kPa, Falling or rolling sphere viscometry	–	125.7 mPa·s
323.15 K, 160500 kPa, Falling or rolling sphere viscometry	–	149.6 mPa·s
323.15 K, 180500 kPa, Falling or rolling sphere viscometry	–	178.5 mPa·s
323.15 K, 200300 kPa, Falling or rolling sphere viscometry	–	210.1 mPa·s
323.15 K, 201300 kPa, Frequency=0 MHz	0.0751	–
323.15 K, 210900 kPa, Falling or rolling sphere viscometry	–	232.2 mPa·s
323.15 K, 225200 kPa, Frequency=0 MHz	0.0625	–
323.15 K, 250100 kPa, Frequency=0 MHz	0.0517	–
323.16 K, 14400 kPa, Frequency=0 MHz	0.378	–
323.16 K, 20500 kPa, Frequency=0 MHz	0.356	–
323.16 K, 25800 kPa, Frequency=0 MHz	0.338	–
323.16 K, 30200 kPa, Frequency=0 MHz	0.324	–
323.16 K, 40000 kPa, Frequency=0 MHz	0.295	–
323.16 K, 49900 kPa, Frequency=0 MHz	0.269	–
333.15 K, 100 kPa, Concentric cylinders viscometry	–	21.51 mPa·s
333.15 K, 100 kPa, Falling or rolling sphere viscometry	–	21.43 mPa·s [middle of 4 runs]
333.15 K, 700 kPa, Falling or rolling sphere viscometry	–	21.55 mPa·s
333.15 K, 10400 kPa, Falling or rolling sphere viscometry	–	23.8 mPa·s
333.15 K, 10600 kPa, Falling or rolling sphere viscometry	–	24.11 mPa·s
333.15 K, 19700 kPa, Falling or rolling sphere viscometry	–	26.33 mPa·s
333.15 K, 20300 kPa, Falling or rolling sphere viscometry	–	26.81 mPa·s
333.15 K, 30600 kPa, Falling or rolling sphere viscometry	–	29.93 mPa·s and 29.71 mPa·s
333.15 K, 40300 kPa, Falling or rolling sphere viscometry	–	32.65 mPa·s
333.15 K, 40600 kPa, Falling or rolling sphere viscometry	–	33.21 mPa·s
333.15 K, 50400 kPa, Falling or rolling sphere viscometry	–	36.22 mPa·s
333.15 K, 50600 kPa, Falling or rolling sphere viscometry	–	36.73 mPa·s
333.15 K, 60500 kPa, Falling or rolling sphere viscometry	–	40.1 mPa·s
333.15 K, 60600 kPa, Falling or rolling sphere viscometry	–	40.52 mPa·s
333.15 K, 80200 kPa, Falling or rolling sphere viscometry	–	48.82 mPa·s
333.15 K, 99600 kPa, Falling or rolling sphere viscometry	–	58.36 mPa·s
343.15 K, 100 kPa, Concentric cylinders viscometry	–	15.99 mPa·s
343.15 K, 100 kPa, Falling or rolling sphere viscometry	–	15.89 mPa·s and 15.97 mPa·s
348.14 K, 10700 kPa, Frequency=0 MHz	0.8	–
348.14 K, 225100 kPa, Frequency=0 MHz	0.167	–
348.15 K, 100 kPa, Falling or rolling sphere viscometry	–	13.81 mPa·s [middle of 7 runs]
348.15 K, 600 kPa, Falling or rolling sphere viscometry	–	13.91 mPa·s
348.15 K, 1100 kPa, Frequency=0 MHz	0.871	–
348.15 K, 1700 kPa, Frequency=0 MHz	0.865	–
348.15 K, 3100 kPa, Frequency=0 MHz	0.855	–
348.15 K, 5100 kPa, Frequency=0 MHz	0.84	–
348.15 K, 10500 kPa, Falling or rolling sphere viscometry	–	15.46 mPa·s
348.15 K, 15700 kPa, Frequency=0 MHz	0.766	–
348.15 K, 20600 kPa, Falling or rolling sphere viscometry	–	17.36 mPa·s
348.15 K, 20800 kPa, Frequency=0 MHz	0.734	–
348.15 K, 25700 kPa, Frequency=0 MHz	0.704	–
348.15 K, 30600 kPa, Falling or rolling sphere viscometry	–	18.78 mPa·s
348.15 K, 30800 kPa, Frequency=0 MHz	0.675	–
348.15 K, 40200 kPa, Frequency=0 MHz	0.625	–
348.15 K, 40700 kPa, Falling or rolling sphere viscometry	–	20.72 mPa·s
348.15 K, 50700 kPa, Falling or rolling sphere viscometry	–	22.73 mPa·s
348.15 K, 51400 kPa, Falling or rolling sphere viscometry	–	22.92 mPa·s
348.15 K, 60700 kPa, Falling or rolling sphere viscometry	–	25.33 mPa·s
348.15 K, 70400 kPa, Falling or rolling sphere viscometry	–	27.64 mPa·s
348.15 K, 76000 kPa, Frequency=0 MHz	0.473	–
348.15 K, 80600 kPa, Falling or rolling sphere viscometry	–	29.75 mPa·s
348.15 K, 89800 kPa, Falling or rolling sphere viscometry	–	32.25 mPa·s
348.15 K, 99100 kPa, Falling or rolling sphere viscometry	–	34.86 mPa·s
348.15 K, 100500 kPa, Falling or rolling sphere viscometry	–	35.04 mPa·s
348.15 K, 125700 kPa, Falling or rolling sphere viscometry	–	42.64 mPa·s
348.15 K, 126600 kPa, Falling or rolling sphere viscometry	–	43.88 mPa·s
348.15 K, 126600 kPa, Frequency=0 MHz	0.326	–
348.15 K, 150600 kPa, Falling or rolling sphere viscometry	–	52.08 mPa·s
348.15 K, 150800 kPa, Falling or rolling sphere viscometry	–	52.23 mPa·s
348.15 K, 152400 kPa, Frequency=0 MHz	0.272	–
348.15 K, 175600 kPa, Falling or rolling sphere viscometry	–	63.12 mPa·s
348.15 K, 199600 kPa, Falling or rolling sphere viscometry	–	75.5 mPa·s
348.15 K, 200900 kPa, Frequency=0 MHz	0.196	–
348.15 K, 237000 kPa, Falling or rolling sphere viscometry	–	99.1 mPa·s
348.15 K, 242900 kPa, Falling or rolling sphere viscometry	–	104.9 mPa·s
348.15 K, 250900 kPa, Frequency=0 MHz	0.141	–
348.16 K, 100 kPa, Frequency=0 MHz	0.877	–
348.16 K, 50000 kPa, Frequency=0 MHz	0.577	–
348.16 K, 103000 kPa, Frequency=0 MHz	0.384	–
348.16 K, 176100 kPa, Frequency=0 MHz	0.231	–
353.15 K, 100 kPa, Concentric cylinders viscometry	–	12.27 mPa·s
353.15 K, 100 kPa, Falling or rolling sphere viscometry	–	12 mPa·s and 11.96 mPa·s
363.15 K, 100 kPa, Concentric cylinders viscometry	–	9.672 mPa·s
363.15 K, 100 kPa, Falling or rolling sphere viscometry	–	9.358 mPa·s and 9.337 mPa·s and 9.414 mPa·s
363.15 K, 9700 kPa, Falling or rolling sphere viscometry	–	10.37 mPa·s
363.15 K, 20100 kPa, Falling or rolling sphere viscometry	–	11.57 mPa·s
363.15 K, 20500 kPa, Falling or rolling sphere viscometry	–	11.52 mPa·s
363.15 K, 30200 kPa, Falling or rolling sphere viscometry	–	12.72 mPa·s
363.15 K, 39200 kPa, Falling or rolling sphere viscometry	–	13.83 mPa·s
363.15 K, 49400 kPa, Falling or rolling sphere viscometry	–	15.21 mPa·s
363.15 K, 59100 kPa, Falling or rolling sphere viscometry	–	16.63 mPa·s
363.15 K, 80200 kPa, Falling or rolling sphere viscometry	–	19.84 mPa·s
363.15 K, 102200 kPa, Falling or rolling sphere viscometry	–	23.51 mPa·s
363.15 K, 102500 kPa, Falling or rolling sphere viscometry	–	23.47 mPa·s
363.15 K, 124000 kPa, Falling or rolling sphere viscometry	–	27.54 mPa·s
363.15 K, 125400 kPa, Falling or rolling sphere viscometry	–	27.86 mPa·s
363.15 K, 147300 kPa, Falling or rolling sphere viscometry	–	32.93 mPa·s
363.15 K, 149300 kPa, Falling or rolling sphere viscometry	–	33.43 mPa·s
363.15 K, 172900 kPa, Falling or rolling sphere viscometry	–	39.05 mPa·s
363.15 K, 200700 kPa, Falling or rolling sphere viscometry	–	47.56 mPa·s
363.15 K, 212300 kPa, Falling or rolling sphere viscometry	–	51.41 mPa·s
